The NIST ThermoML archive (doi:10.1016/j.fluid.2008.11.014)
Numbers after ± are expanded uncertainties.

Assays:
[1] = 298.2 K; 101.33 kPa; Liquid; Vibrating tube method
[2] = refractive index (Na D-line) (dimensionless); settings: 298.2 K; 101.33 kPa; Liquid; Standard Abbe refractometry

Row | mass density [1] [kg/m3] | refractive index [2] | SMILES
1 | 718.79 ± 0.3 | 1.3653 ± 0.0007 | CC(C)OC(C)C [diisopropyl ether]
2 | 799.62 ± 0.24 | 1.3835 ± 0.0007 | CCCO [propan-1-ol]
